# Measurements reported in patent US12281107B2, “SET8 lysine methyltransferase inhibitor and preparation method and application thereof” (HAINAN YILING MEDICAL INDUSTRY & DEVELOPMENT Co., Ltd., priority 2019, dated 2025).
# Legend:
# glioma cell line SH-SY5Y = assay: CCK-8 cell proliferation inhibition test, SH-SY5Y; format: cell-based; settings: Homo sapiens, 48 h; for inhibition at 100 µM: read-out: IC % for 100 μM; for IC50: CCK-8
# Method: (§1) 1. Experimental Method: […] cell line SH-SY5Y, colorectal cancer cell line SW480 and liver cancer cell line HepG2 are respectively cultured in an RPMI-1640 medium containing 10% calf serum at 37° C. in a 5% CO2 incubator. The […] method is adopted for cell proliferation inhibition test, and the main operation is as follows: taking the tumor cell line in the logarithmic phase, digesting with 0.25% trypsin, preparing an RPMI-1640 medium containing 10% newborn calf serum into a cell suspension of 6×10^4 cells/mL, and inoculating the cell suspension into a 96-well plate, with 100 μL per well. Culturing at 37° C. and 5% CO2 saturated humidity for 12 h. After adherence, absorbing the culture supernatants in the wells, and adding the sample solution prepared from the RPMI-1640 medium containing 1% calf serum to each well so that the final concentrations of the samples are 100 μM, 30 μM, 10 μM, 3 μM, 1 μM, and 0.3 μM respectively. With 3 wells in parallel for each concentration, continuing culturing for 48 h, then adding 10 μL of CCK-8 solution (Dalian Meilun, MA0218) to each well, and continuing incubating at 37° C. and 5% CO2 for 4 h. Selecting 470 nm on the enzyme-linked immunosorbent assay apparatus to measure the light absorption value of each well, and setting a blank group (only adding a culture solution containing cells) and a control group (using the culture solution to replace drugs) to calculate the cell proliferation inhibition rate. Inhibition rate (%)=(1−average OD value of 3 wells in experimental group/average OD value of 3 wells in control group)×100%. With the inhibition rate as an ordinate, a regression curve is drawn to calculate the IC50 value of the sample. Graphpad prism 7.0 software are adopted for data processing and statistical analysis by.
# [1] = target: T1, lysine methyltransferase SET8 (Homo sapiens, UniProt Q9NQR1); assay: SET8 methyltransferase inhibitor screening assay kit (Cayman), fluorescence; format: biochemical; settings: incubation at 37° C. for 10 min; inhibitor concentration not given
# T1 construct: purchased Cayman Company
# T1 sequence (Q9NQR1 1-393): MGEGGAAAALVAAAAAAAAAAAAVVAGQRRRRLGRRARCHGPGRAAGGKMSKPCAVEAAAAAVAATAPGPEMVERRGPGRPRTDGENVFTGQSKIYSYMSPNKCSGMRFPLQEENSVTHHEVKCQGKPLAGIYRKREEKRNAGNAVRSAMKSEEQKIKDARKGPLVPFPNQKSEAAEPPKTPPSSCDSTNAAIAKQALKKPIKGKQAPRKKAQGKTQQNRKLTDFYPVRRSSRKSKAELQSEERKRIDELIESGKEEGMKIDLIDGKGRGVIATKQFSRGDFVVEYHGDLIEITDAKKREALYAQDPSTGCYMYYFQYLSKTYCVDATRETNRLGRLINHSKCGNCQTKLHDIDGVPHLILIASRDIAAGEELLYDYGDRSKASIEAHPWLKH
# Method: The steps of activity detection are completely based on the SET8 methyltransferase inhibitor screening assay kit of Cayman Company. In short, reagents in the kit are added to the 96-well plate to be tested according to the Table A below.
# Then 10 μL of SET8 albumen protein is added to each well, and the reaction begins. After incubation at 37° C. for 10 min, the fluorescence intensity (A) value is measured at the excitation wavelength of 535 nm and the […] of 590 nm. the inhibition rate of the compound is calculated according to the following formula: Inhibition rate %=(Anormal−Asample)/)Normal*100%, and the inhibition rate of each inhibitor on lysine methyltransferase is shown in Table 1.
# [2] = system: colorectal cancer cell line SW480; assay: CCK-8 cell proliferation inhibition test, SW480; format: cell-based; settings: for IC50: Homo sapiens, SW480, 48 h, CCK-8; for IC % for 100 μM: SW480, 100 μM, 48 h; for tumor cell proliferation inhibitory activity (in words): SW480, summary of Table 2
# Method: as §1
# [3] = system: liver cancer cell line HepG2; assay: CCK-8 cell proliferation inhibition test, HepG2; format: cell-based; settings: for IC % for 100 μM: HepG2, 100 μM, 48 h; for tumor cell proliferation inhibitory activity (in words): HepG2, summary of Table 2; for IC50: Homo sapiens, HepG2, 48 h, CCK-8
# Method: as §1
Structure (SMILES),IC50 (glioma cell line SH-SY5Y),Inhibition Rate (%) [1],IC50 [2],IC50 [3],inhibition at 100 µM (glioma cell line SH-SY5Y),IC % for 100 μM [2],tumor cell proliferation inhibitory activity (in words) [2],IC % for 100 μM [3],tumor cell proliferation inhibitory activity (in words) [3]
"COc1ccc(Cn2nc(-c3ccccc3)nc2C2CNCCO2)cc1 (stereo not drawn) [Compound 13, 2-(1-(4-methoxybenzyl)-3-phenyl-1H-1,2,4-triazol-5-yl)morpholine]",138 µM,32.5%,–,–,37.8%,–,–,–,–
"COc1ccc(Cc2nc(C3CNCCO3)n(-c3ccccn3)n2)cc1 (stereo not drawn) [Compound 6, 2-(3-(4-methoxybenzyl)-1-(pyridin-2-yl)-1H-1,2,4-triazol-5-yl)morpholine]",76.5 µM,70.3%,–,–,58.6%,–,–,–,–
"COc1ccc(Cc2nc(C3CNCCO3)n(C3CCCCC3)n2)cc1 (stereo not drawn) [Compound 3, 2-(1-cyclohexyl-3-(4-methoxybenzyl)-1H-1,2,4-triazol-5-yl)morpholine]",22.6 µM,70.0%,18.3 µM,19.2 µM,76.5%,73.2%,good tumor cell proliferation inhibitory activity,48.8%,good tumor cell proliferation inhibitory activity
"COc1ccc(Cc2nc(C3CNCCO3)n(-c3ccccc3)n2)cc1 (stereo not drawn) [Compound 4, 2-(3-(4-methoxybenzyl)-1-phenyl-1H-1,2,4-triazol-5-yl)morpholine]",78.6 µM,71.5%,–,–,57.8%,–,–,–,–
"CN1CCC(n2nc(-c3ccccc3)nc2C2CNCCO2)CC1 (stereo not drawn) [Compound 15, 2-(1-(1-methylpiperidin-4-yl)-3-phenyl-1H-1,2,4-triazol-5-yl)morpholine]",95.3 µM,53.9%,–,–,52.3%,–,–,–,–
COc1ccc(Cc2nc(C)n(C3CCN(C)CC3)n2)cc1 [Compound 20],10.4 µM,76.9%,11.3 µM,13.6 µM,84.7%,79.6%,good tumor cell proliferation inhibitory activity,68.7%,good tumor cell proliferation inhibitory activity
"COc1ccc(Cc2nc(C3CN(Cc4ccccc4)CCO3)n(C3CCN(C)CC3)n2)cc1 (stereo not drawn) [Compound 9, 4-benzyl-2-(3-(4-methoxybenzyl)-1-(1-methylpiperidin-4-yl)-1H-1,2,4-triazol-5-yl)morpholine]",77.3 µM,72.3%,–,–,58.5%,–,–,–,–
"COc1ccc(Cc2nc(C3CNCCO3)n(C)n2)cc1 (stereo not drawn) [Compound 8, 2-(3-(4-methoxybenzyl)-1-methyl-1H-1,2,4-triazol-5-yl)morpholine]",73.1 µM,69.3%,–,–,59.5%,–,–,–,–
"Cc1ccc(-c2nc(C3CNCCO3)n(C3CCN(C)CC3)n2)cc1 (stereo not drawn) [Compound 16, 2-(1-(1-methylpiperidin-4-yl)-3-(p-methylphenyl)-1H-1,2,4-triazol-5-yl)morpholine]",93.7 µM,54.8%,–,–,52.8%,–,–,–,–
"COc1ccc(Cc2nc(C3CNCCO3)n(-c3cccc(C)c3)n2)cc1 (stereo not drawn) [Compound 5, 2-(3-(4-methoxybenzyl)-1-(m-methylphenyl)-1H-1,2,4-triazol-5-yl)morpholine]",81.3 µM,70.2%,–,–,57.1%,–,–,–,–
"COc1ccc(Cc2nc(CN)n(C3CCN(C)CC3)n2)cc1 [Compound 11, (3-(4-methoxybenzyl)-1-(1-methylpiperidin-4-yl)-1H-1,2,4-triazol-5-yl)methylamine]",132 µM,36.8%,–,–,39.9%,–,–,–,–
COc1ccc(Cc2nc(C(C)(C)C)n(C3CCN(C)CC3)n2)cc1 [Compound 19],118 µM,45.2%,–,–,44.8%,–,–,–,–
"COc1ccc(Cc2nc(C3CCCCC3)n(C3CCN(C)CC3)n2)cc1 [Compound 18, 4-(5-cyclohexyl-3-(4-methoxybenzyl)-1H-1,2,4-triazol-5-yl)-1-methylpiperidin]",126 µM,43.8%,–,–,41.9%,–,–,–,–
"COc1ccc(Cc2nc(C3CCCCC3)n(Cc3ccc(OC)cc3)n2)cc1 [Compound 21, 5-cyclohexyl-1,3-dis(4-methoxybenzyl)-1H-1,2,4-triazole]",114 µM,43.7%,–,–,46.2%,–,–,–,–

# Second part, led by results:
IC50 (glioma cell line SH-SY5Y),Inhibition Rate (%) [1],IC50 [2],IC50 [3],Structure (SMILES),inhibition at 100 µM (glioma cell line SH-SY5Y),IC % for 100 μM [2],tumor cell proliferation inhibitory activity (in words) [2],IC % for 100 μM [3],tumor cell proliferation inhibitory activity (in words) [3]
94.7 µM,58.4%,–,–,"COc1ccc(Cc2nc(C3CNCCO3)n(C3CCN(C)CC3)n2)cc1 (stereo not drawn) [Compound 1, 2-(3-(4-methoxybenzyl)-1-(1-methylpiperidin-4-yl)-1H-1,2,4-triazol-5-yl)morpholine]",52.5%,–,–,–,–
123 µM,43.6%,–,–,"COc1ccc(Cc2nc(C3CCCCO3)n(C3CCN(C)CC3)n2)cc1 (stereo not drawn) [Compound 10, 4-(3-(4-methoxybenzyl)-5-(tetrahydro-2H-pyran-2-yl)-1H-1,2,4-triazol-5-yl)-1-methylpiperidin]",43.3%,–,–,–,–
92.1 µM,58.3%,–,–,"Cc1cccc(-c2nc(C3CNCCO3)n(C3CCN(C)CC3)n2)c1 (stereo not drawn) [Compound 17, 2-(1-(1-methylpiperidin-4-yl)-3-(m-methylphenyl)-1H-1,2,4-triazol-5-yl)morpholine]",53.7%,–,–,–,–
92.5 µM,59.2%,–,–,"CN1CCC(n2nc(Cc3ccccc3)nc2C2CNCCO2)CC1 (stereo not drawn) [Compound 14, 2-(3-benzyl-1-(1-methylpiperidin-4-yl)-1H-1,2,4-triazol-5-yl)morpholine]",53.2%,–,–,–,–
78.4 µM,70.8%,–,–,"COc1ccc(Cc2nc(C3CNCCO3)n(-c3cnccn3)n2)cc1 (stereo not drawn) [Compound 7, 2-(3-(4-methoxybenzyl)-1-(pyrazin-2-yl)-1H-1,2,4-triazol-5-yl)morpholine]",57.9%,–,–,–,–
71.8 µM,67.8%,–,–,"COc1ccc(Cc2nc(C3CCCCO3)n(Cc3ccc(OC)cc3)n2)cc1 (stereo not drawn) [Compound 12, 1,3-bis(4-methoxybenzyl)-5-(tetrahydro-2H-pyran-2-yl)-1H-1,2,4-triazole]",60.1%,–,–,–,–
13.7 µM,74.2%,16.4 µM,17.6 µM,"COc1ccc(Cc2nc(C3CNCCO3)n(Cc3ccc(OC)cc3)n2)cc1 (stereo not drawn) [Compound 2, 2-(1,3-bis(4-methoxybenzyl)-1H-1,2,4-triazol-5-yl)morpholine]",78.3%,75.8%,good tumor cell proliferation inhibitory activity,51.5%,good tumor cell proliferation inhibitory activity
